Results taken from ChEMBL document CHEMBL1146493, “Effect of phenolic glycosides on Agrobacterium tumefaciens virH gene induction and plant transformation” (J Nat Prod, 2004).
Calls of active or inactive are those of the source. The calls are words filed in the database; no cut-off is given here.

Assays:
[1] = system: Agrobacterium tumefaciens; assay: Inhibition of virH gene expression in Agrobacterium tumefaciens A348 overexpressing pSM219 virH::lacZ assessed as beta-galactosidase activity at 100 uM after 18 hrs; assay type: functional, organism-based
Nicotiana tabacum [2] = assay: Increase in genetic transformation in tobacco leaf explant co-cultured with Agrobacterium tumefaciens A348 assessed as callus formation at 100 uM after 4 weeks; assay type: functional
Nicotiana tabacum [3] = assay: Increase in genetic transformation in tobacco leaf explant co-cultured with Agrobacterium tumefaciens A348 assessed as buds formation at 100 uM after 4 weeks; assay type: functional
[4] = Toxicity in tobacco leaf explant co-cultured with Agrobacterium tumefaciens A348 assessed as detrimental genetic transformation at 500 uM after 4 weeks; conditions: nicotiana tabacum, 672 h
Nicotiana tabacum [5] = assay: Increase in transformation frequency of tobacco leaf explant co-cultured with Agrobacterium tumefaciens A348 assessed as explant survival at 100 uM after 21 days; assay type: functional
[6] = system: Agrobacterium tumefaciens; assay: Induction of virH gene expression in Agrobacterium tumefaciens A348 overexpressing pSM219 virH::lacZ assessed as beta-galactosidase activity at 10 mM after 18 hrs relative to acetosyringone; assay type: functional, organism-based
[7] = Toxicity in tobacco leaf explant co-cultured with Agrobacterium tumefaciens A348 assessed as mortality at 2 mM within 3 to 4 days; conditions: nicotiana tabacum, 2000 µM
Nicotiana tabacum [8] = assay: Increase in transformation frequency of tobacco leaf explant co-cultured with Agrobacterium tumefaciens A348 assessed as transgenic callus formation at 100 uM after 21 days; assay type: functional
[9] = system: Agrobacterium tumefaciens; assay: Induction of virH gene expression in Agrobacterium tumefaciens A348 overexpressing pSM219 virH::lacZ assessed as beta-galactosidase activity at 100 uM after 18 hrs; assay type: functional, organism-based
[10] = system: Agrobacterium tumefaciens; assay: Induction of virH gene expression in Agrobacterium tumefaciens A348 overexpressing pSM219 virH::lacZ assessed as beta-galactosidase activity at 1 mM after 18 hrs relative to acetosyringone; assay type: functional
[11] = system: Agrobacterium tumefaciens; assay: Induction of virH gene expression in Agrobacterium tumefaciens A348 overexpressing pSM219 virH::lacZ assessed as beta-galactosidase activity at 0.5 mM after 18 hrs relative to acetosyringone; assay type: functional
[12] = system: Agrobacterium tumefaciens; assay: Toxicity in Agrobacterium tumefaciens A348 overexpressing pSM219 virH::lacZ assessed as […] at 5 mM after 18 hrs; assay type: organism-based; conditions: in vivo, 5000 µM
[13] = Toxicity in tobacco leaf explant co-cultured with Agrobacterium tumefaciens A348 assessed as mortality at 500 uM after 7 days; conditions: nicotiana tabacum, 168 h
[14] = system: Agrobacterium tumefaciens; assay: Decrease in virH gene expression in Agrobacterium tumefaciens A348 overexpressing pSM219 virH::lacZ assessed as beta-galactosidase activity at >=250 uM after 18 hrs; assay type: functional, organism-based

CC(=O)c1ccc(O[C@@H]2OC[C@@H](O)[C@H](O)[C@H]2O)cc1
Activity [1]: Active

COc1cc(C(=O)/C=C/c2ccc(O)cc2)cc(OC)c1O[C@@H]1O[C@H](CO)[C@@H](O)[C@H](O)[C@H]1O
Activity (Nicotiana tabacum [2]): Active | Activity (Nicotiana tabacum [3]): Active

COc1cc(C(=O)/C=C/c2ccc(O)cc2)cc(OC)c1O
Activity (Nicotiana tabacum [2]): Active | Activity (Nicotiana tabacum [3]): Active

COc1cc(C(C)=O)cc(OC)c1O[C@@H]1O[C@H](CO)[C@@H](O)[C@H](O)[C@H]1O [GLUCOACETOSYRINGONE]
Activity [4]: Non-toxic | Activity [1]: Active | Activity (Nicotiana tabacum [5]): Active | Activity [6]: Active | Activity (Nicotiana tabacum [2]): Active | Activity (Nicotiana tabacum [3]): Active | Activity [7]: Non-toxic | Activity (Nicotiana tabacum [8]): Active

COc1cc(/C=C/C(C)=O)cc(OC)c1O
Activity (Nicotiana tabacum [2]): Active | Activity (Nicotiana tabacum [3]): Active | Activity [9]: Active

COc1cc(C(C)=O)ccc1O[C@@H]1OC[C@@H](O)[C@H](O)[C@H]1O
Activity [1]: Active

COc1cc(C(C)=O)cc(OC)c1O[C@@H]1OC[C@@H](O)[C@H](O)[C@H]1O
Activity [10]: 50% | Activity [1]: Active | Activity (Nicotiana tabacum [5]): Active | Activity [11]: 25% | Activity (Nicotiana tabacum [2]): Active | Activity (Nicotiana tabacum [3]): Active | Activity (Nicotiana tabacum [8]): Active

COc1cc(/C=C/C(C)=O)cc(OC)c1O[C@@H]1O[C@H](CO)[C@@H](O)[C@H](O)[C@H]1O
Activity [1]: Active | Activity (Nicotiana tabacum [2]): Active | Activity (Nicotiana tabacum [3]): Active

COc1cc(C(C)=O)cc(OC)c1O[C@H]1O[C@H](CO)[C@@H](O)[C@H](O)[C@H]1O
Activity [1]: Active | Activity (Nicotiana tabacum [5]): Active | Activity [11]: 25% | Activity (Nicotiana tabacum [2]): Active | Activity (Nicotiana tabacum [3]): Active | Activity (Nicotiana tabacum [8]): Active

COc1cc(C(C)=O)cc(OC)c1O [ACETOSYRINGONE]
Activity [4]: Toxic | Activity (Nicotiana tabacum [5]): Active | Activity (Nicotiana tabacum [2]): Active | Activity [12]: Toxic | Activity [13]: Toxic | Activity [14]: Active | Activity (Nicotiana tabacum [3]): Active | Activity [9]: Active | Activity [7]: Toxic | Activity (Nicotiana tabacum [8]): Active
